From patent US5324726A, “Benzodiazepine analogs” (Merck & Co., Inc., priority 1992, dated 1994)
“Also recorded” adds a separate entry of the source. Square brackets hold non-standard residues; d marks the D form. Peptide text beside a SMILES is read from it. * marks the point of attachment. sY = N[C@@H](Cc1ccc(OS(=O)(=O)O)cc1)C(=O)O; Cbz = O=C(OCc1ccccc1)*; Boc = CC(C)(C)OC(=O)*

What was measured:
CCK receptor = conditions: background literature; cited from earlier work
[1] = biological target: T1, CCK receptor, brain (cerebral cortex) (Cavia porcellus, UniProt H0VZC5); experiment: CCK Receptor Binding (Brain): inhibition of 125I-CCK(-33) binding; parameters: species or system guinea pig (Male Hartley); conditions: guinea pig cerebral cortex membranes
T1 construct: Cerebral cortex was dissected and used as a receptor source; from tissue; host or cells: guinea pig cerebral cortex membranes
T1 sequence (H0VZC5 1-426): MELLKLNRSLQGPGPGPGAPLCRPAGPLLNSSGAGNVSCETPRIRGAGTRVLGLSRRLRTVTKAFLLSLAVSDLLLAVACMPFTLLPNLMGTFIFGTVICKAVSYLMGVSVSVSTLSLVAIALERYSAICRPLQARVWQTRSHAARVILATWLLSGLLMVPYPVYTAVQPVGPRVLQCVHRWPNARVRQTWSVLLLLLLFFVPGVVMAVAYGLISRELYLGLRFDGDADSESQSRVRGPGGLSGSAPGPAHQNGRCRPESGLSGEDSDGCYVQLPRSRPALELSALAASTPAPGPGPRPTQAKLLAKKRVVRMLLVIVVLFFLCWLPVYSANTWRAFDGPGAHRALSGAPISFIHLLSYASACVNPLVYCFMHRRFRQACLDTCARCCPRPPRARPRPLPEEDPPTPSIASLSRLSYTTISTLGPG
Procedure: 2. CCK Receptor Binding (Brain)
CCK-33 was radiolabeled and the binding was performed according to the description for the pancreas method with modifications according to Saito et al., J. Neurochem. 37:483-490, 1981.
Male Hartley guinea pigs (300-500 g) were sacrificed by decapitation and the brains were removed and placed in ice-cold 50 mM, Tris HCl plus 7.58 g/l Trizma-7.4 (pH 7.4 at 25° C.). Cerebral cortex was dissected and used as a receptor source. Each gram of fresh guinea pig brain tissue was homogenized in 10 ml of Tris/Trizma buffer with a Brinkman polytron PT-10. The homogenates were centrifuged at 42,000 g for 15 minutes. Pellets were resuspended in Tris Buffer, centrifuged as above and resuspended in 200 volumes of binding assay buffer (10 mM N-2-hydroxyethyl-piperazine-N'-2-ethane sulfonic acid (HEPES), 5 mM MgCl2, 0.25 mg/ml bacitracin, 1 mM ethylene glycol-bis-(β-aminoethylether-N,N'-tetraadetic acid) (EGTA), and 0.4% bovine serum albumin (BSA)). […] All assays were run in duplicate or triplicate. The reaction mixtures were incubated at 25° C. for 2 hours and centrifuged in a Beckman Microfuge (4 minutes) immediately after adding 1 ml of ice-cold incubation buffer. The supernatant was aspirated and discarded, pellets were counted with a Beckman gamma 5000.

CCK receptor, pancreas = biological target: T2, CCK receptor, pancreas (Rattus norvegicus, UniProt P30551); experiment: CCK Receptor Binding (Pancreas): inhibition of 125I-CCK(-33) binding; parameters: species or system rat (Male Sprague-Dawley); conditions: protease inhibitors added to the binding assay
T2 construct: The whole pancreas was dissected free of fat tissue and was homogenized; from tissue; host or cells: rat pancreas membranes
T2 sequence (P30551 1-444): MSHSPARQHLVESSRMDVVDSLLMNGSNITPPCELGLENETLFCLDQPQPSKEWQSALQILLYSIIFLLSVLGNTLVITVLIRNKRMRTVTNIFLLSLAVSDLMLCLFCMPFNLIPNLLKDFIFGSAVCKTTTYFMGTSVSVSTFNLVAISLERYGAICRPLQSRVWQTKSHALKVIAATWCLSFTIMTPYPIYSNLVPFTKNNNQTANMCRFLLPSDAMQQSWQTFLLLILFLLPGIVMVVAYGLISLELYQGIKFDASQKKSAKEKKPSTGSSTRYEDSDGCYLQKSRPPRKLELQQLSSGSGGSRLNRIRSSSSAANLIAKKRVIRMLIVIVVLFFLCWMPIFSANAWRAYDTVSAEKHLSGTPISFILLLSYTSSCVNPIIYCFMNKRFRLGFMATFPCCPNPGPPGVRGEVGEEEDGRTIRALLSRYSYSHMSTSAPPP
Procedure: 1. CCK Receptor Binding (Pancreas)
CCK-33 was radiolabeled with ^125 I-Bolton Hunter reagent (2000 Ci/mmole) as described by Sankara et al. (J. Biol. Chem. 254: 9349-9351, 1979). Receptor binding was performed according to Innis and Snyder (Proc. Natl. Acad. Sci. 77, 6917-6921, 1980) with the minor modification of adding the additional protease inhibitors, phenylmethane sulfonyl fluoride and o-phenanthroline. The latter two compounds have no effect on the ^125 -CCK receptor binding assay.
Male Sprague-Dawley rats (200-350 g) were sacrificed by decapitation. The whole pancreas was dissected free of fat tissue and was homogenized in 20 volumes of ice-cold 50 mM, Tris HCl (pH 7.7 at 25° C.) with a Brinkmann Polytron PT 10. The homogenates were centrifuged at 48,000 g for 10 min. Pellets were resuspended in Tris Buffer, centrifuged as above and resuspended in 200 volumes of binding assay buffer (50 mM Tris HCl, pH 7.7 at 25° C., 5 mM dithiothrietol, 0.1 mM bacitracin, 1.2 mM phenylmethane sulfonyl fluoride and 0.5 mM o-phenanthroline). […] All assays were run in duplicate or triplicate. The reaction mixtures were incubated at 37° C. for 30 minutes and centrifuged in a Beckman Microfuge (4 minutes) immediately after adding 1 ml of ice-cold incubation buffer. The supernatant was aspirated and discarded, pellets were counted with a Beckman gamma 5000. […]

gastrin = conditions: background literature; in vitro; cited from earlier work

SMILES | CCK antagonism (in words) (CCK receptor) | other results
CSCC[C@H](NC(=O)OC(C)(C)C)C(=O)N[C@@H](CC(=O)O)C(=O)N[C@@H](Cc1ccccc1)C(N)=O [Boc-Met-Asp-Phe-NH2] (Boc-Met-Asp-Phe-NH2) | can function as CCK antagonists | –
CSCC[C@H](NC(=O)[C@H](Cc1ccc(OS(=O)(=O)O)cc1)NC(=O)OCc1ccccc1)C(=O)NCC(=O)N[C@@H](Cc1c[nH]c2ccccc12)C(=O)N[C@@H](CCSC)C(=O)N[C@@H](CC(=O)O)C(N)=O [Cbz-Tyr(SO3 H)-Met-Gly-Trp-Met-Asp-NH2] (Cbz-[sY]MGWMD-NH2) | can function as CCK antagonists; also recorded: partial agonist | –
CN1C(=O)[C@@H](NC(=O)c2cc3cc(O)ccc3[nH]2)N=C(c2ccccc2)c2ccccc21 [Example 15, 1,3-Dihydro-3-(5-hydroxyindole-2-carbonylamino)-1-methyl-5-phenyl-2H-1,4-benzodiazepin-2-one] | – | IC50 [1]: 910 nM
CSCC[C@H](N)C(=O)N[C@@H](CC(=O)O)C(=O)N[C@@H](Cc1ccccc1)C(N)=O [Met-Asp-Phe-NH2] (H-Met-Asp-Phe-NH2) | can function as CCK antagonists | –
CCCC(=O)Nc1nc2c(ncn2[C@@H]2O[C@@H]3COP(=O)(O)O[C@H]3[C@H]2OC(=O)CCC)c(=O)[nH]1 [dibutyryl cyclic GMP] | the most potent | –
c1cnc2c(c1)ccc1cccnc12 [o-phenanthroline] | – | effect on the 125-CCK receptor binding assay (CCK receptor, pancreas): no effect
O=S(=O)(F)Cc1ccccc1 [phenylmethane sulfonyl fluoride] | – | effect on the 125-CCK receptor binding assay (CCK receptor, pancreas): no effect
CCCN(CCC)C(=O)C(CCC(=O)O)NC(=O)c1ccccc1 (centres unmarked) [proglumide] | – | gastrin antagonism (in words) (gastrin): very weak in vitro antagonists
